Results as given in ChEMBL document CHEMBL4346723, “Targeting tropomyosin receptor kinase for cancer therapy” (Eur J Med Chem, 2019).
Blank lines part the entries; values can stand above or below the compound they belong to.

Experiments:
[1] = molecular target: T1, High affinity nerve growth factor receptor (Homo sapiens, UniProt P04629); test: Inhibition of recombinant full length human TRKA expressed in U2OS cells using Poly(Glu:Tyr) as substrate after 30 mins by scintillation counting assay
[2] = Inhibition of TRK (unknown origin); set-up: species or system Homo sapiens
KM12 = test: cells; conditions: Homo sapiens
Description: Growth inhibition of human KM12 cells

[3] = Half life in healthy volunteer at 100 mg, twice daily; conditions: human, in vivo
[4] = Apparent oral clearance in healthy volunteer at 100 mg, twice daily; conditions: human, in vivo
[5] = Tmax in cancer patient at 100 mg, twice daily; format: ADME; conditions: human, in vivo
[6] = AUC (0 to 24 hrs) in cancer patient at 100 mg, twice daily; format: ADME; set-up: dose 100 mg, time < 24 hr; conditions: human, in vivo
[7] = Oral bioavailability in healthy volunteer at 100 mg, twice daily; conditions: human, in vivo
[8] = Volume of distribution at steady state in healthy volunteer at 100 mg, twice daily; conditions: human, in vivo, read-out: Vdss
[9] = Cmax in cancer patient at 100 mg, twice daily; format: ADME; set-up: dose 100 mg; conditions: human, in vivo
[10] = molecular target: T1, High affinity nerve growth factor receptor; test: Inhibition TRKA (unknown origin) by cell based assay
IMR-32 = test: Antiproliferative activity against human IMR32 cells by sulforhodamine B assay; format: functional, cell-based
[11] = molecular target: T1, High affinity nerve growth factor receptor; test: Inhibition of human TRKA expressed in human AD293 cells assessed as reduction in TrkA phosphorylation at Tyr490 residues preincubated for 20 mins followed by NGF-stimulation measure after 5 mins by ELISA; format: cell-based
[12] = molecular target: Tyrosine-protein kinase JAK2 (Homo sapiens, UniProt O60674); test: Inhibition of recombinant C-terminal His6-tagged human JAK2 (808 to end residues) expressed in baculovirus infected SF21 insect cells using Tyr 1054/1055 biotinylated peptide as substrate after 60 mins by Alphascreen assay
[13] = molecular target: BDNF/NT-3 growth factors receptor (Homo sapiens, UniProt Q16620); test: Inhibition of TRKB (unknown origin)
[14] = molecular target: Tyrosine-protein kinase BTK (Homo sapiens, UniProt Q06187); test: Inhibition of BTK (unknown origin)
[15] = molecular target: T1, High affinity nerve growth factor receptor; test: Inhibition of recombinant His-tagged human TRKA cytoplasmic domain (441 to 796 residues) expressed in baculovirus expression system using biotin labelled TK peptide preincubated for 20 mins followed by substrate addition by HTRF assay
[16] = molecular target: T1, High affinity nerve growth factor receptor; test: Inhibition of recombinant N- terminal GST-tagged human NTRK1 expressed in baculovirus infected Sf9 cells using Poly(Glu:Tyr) as substrate after 45 mins
[17] = molecular target: T1, High affinity nerve growth factor receptor; test: Inhibition of TRKA (unknown origin) using poly GT as substrate preincubated for 30 mins followed by substrate addition measured after 30 mins by TR-FRET Assay
NTRK1/NTRK2 = NTRK1/NTRK2 (Homo sapiens, UniProt P04629+Q16620); test: Inhibition of TRKA/TRKB (unknown origin); format: protein assay

T1 sequence (P04629 whole entry): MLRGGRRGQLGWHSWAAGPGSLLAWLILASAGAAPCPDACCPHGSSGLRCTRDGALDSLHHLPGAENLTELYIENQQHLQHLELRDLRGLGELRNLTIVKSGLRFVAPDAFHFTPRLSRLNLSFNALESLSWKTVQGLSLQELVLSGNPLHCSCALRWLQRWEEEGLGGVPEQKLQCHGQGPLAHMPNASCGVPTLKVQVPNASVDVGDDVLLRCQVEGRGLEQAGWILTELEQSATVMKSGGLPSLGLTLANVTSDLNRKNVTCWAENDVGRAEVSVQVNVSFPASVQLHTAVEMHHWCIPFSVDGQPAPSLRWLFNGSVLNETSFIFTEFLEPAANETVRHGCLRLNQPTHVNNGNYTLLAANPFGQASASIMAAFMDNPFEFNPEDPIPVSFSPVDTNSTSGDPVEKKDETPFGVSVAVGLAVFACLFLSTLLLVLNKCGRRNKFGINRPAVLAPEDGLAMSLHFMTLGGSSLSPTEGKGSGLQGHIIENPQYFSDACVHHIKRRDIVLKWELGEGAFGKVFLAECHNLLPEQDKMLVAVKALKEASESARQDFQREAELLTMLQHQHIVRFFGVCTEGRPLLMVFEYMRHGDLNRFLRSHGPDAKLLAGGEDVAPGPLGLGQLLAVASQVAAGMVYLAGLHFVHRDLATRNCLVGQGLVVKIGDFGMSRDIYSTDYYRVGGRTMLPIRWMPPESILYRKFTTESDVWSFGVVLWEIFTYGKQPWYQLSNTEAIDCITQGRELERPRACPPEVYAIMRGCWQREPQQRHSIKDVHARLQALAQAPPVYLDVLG
Tyrosine-protein kinase JAK2, sequence (O60674 whole entry): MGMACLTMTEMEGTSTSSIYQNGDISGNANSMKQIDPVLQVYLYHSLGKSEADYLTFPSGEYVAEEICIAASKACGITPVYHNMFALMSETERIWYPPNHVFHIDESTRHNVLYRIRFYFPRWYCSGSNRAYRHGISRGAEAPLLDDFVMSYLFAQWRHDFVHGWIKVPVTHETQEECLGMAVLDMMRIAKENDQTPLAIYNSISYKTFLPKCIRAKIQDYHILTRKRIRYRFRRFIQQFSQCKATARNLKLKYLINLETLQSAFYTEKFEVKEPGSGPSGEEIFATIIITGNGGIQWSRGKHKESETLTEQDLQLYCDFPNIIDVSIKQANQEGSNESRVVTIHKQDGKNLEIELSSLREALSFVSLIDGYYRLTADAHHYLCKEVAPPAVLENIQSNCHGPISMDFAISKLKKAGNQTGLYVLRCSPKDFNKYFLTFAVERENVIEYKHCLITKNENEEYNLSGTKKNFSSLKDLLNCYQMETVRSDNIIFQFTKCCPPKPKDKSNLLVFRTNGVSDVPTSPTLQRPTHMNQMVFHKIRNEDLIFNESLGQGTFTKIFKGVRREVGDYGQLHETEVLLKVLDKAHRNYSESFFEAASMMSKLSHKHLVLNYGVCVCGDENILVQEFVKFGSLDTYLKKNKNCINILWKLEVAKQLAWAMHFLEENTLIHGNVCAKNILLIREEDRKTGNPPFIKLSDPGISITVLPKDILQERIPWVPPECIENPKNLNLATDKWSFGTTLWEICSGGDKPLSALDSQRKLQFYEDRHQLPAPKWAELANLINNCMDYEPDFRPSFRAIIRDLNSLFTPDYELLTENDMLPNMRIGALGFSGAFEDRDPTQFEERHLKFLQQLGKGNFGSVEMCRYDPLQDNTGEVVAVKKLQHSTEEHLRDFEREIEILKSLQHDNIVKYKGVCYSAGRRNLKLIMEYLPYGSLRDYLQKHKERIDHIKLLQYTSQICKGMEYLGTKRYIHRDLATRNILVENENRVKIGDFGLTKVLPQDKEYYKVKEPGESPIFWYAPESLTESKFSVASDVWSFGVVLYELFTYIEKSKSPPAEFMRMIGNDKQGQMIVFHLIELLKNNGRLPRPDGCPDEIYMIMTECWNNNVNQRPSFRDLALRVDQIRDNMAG
BDNF/NT-3 growth factors receptor, sequence (Q16620 whole entry): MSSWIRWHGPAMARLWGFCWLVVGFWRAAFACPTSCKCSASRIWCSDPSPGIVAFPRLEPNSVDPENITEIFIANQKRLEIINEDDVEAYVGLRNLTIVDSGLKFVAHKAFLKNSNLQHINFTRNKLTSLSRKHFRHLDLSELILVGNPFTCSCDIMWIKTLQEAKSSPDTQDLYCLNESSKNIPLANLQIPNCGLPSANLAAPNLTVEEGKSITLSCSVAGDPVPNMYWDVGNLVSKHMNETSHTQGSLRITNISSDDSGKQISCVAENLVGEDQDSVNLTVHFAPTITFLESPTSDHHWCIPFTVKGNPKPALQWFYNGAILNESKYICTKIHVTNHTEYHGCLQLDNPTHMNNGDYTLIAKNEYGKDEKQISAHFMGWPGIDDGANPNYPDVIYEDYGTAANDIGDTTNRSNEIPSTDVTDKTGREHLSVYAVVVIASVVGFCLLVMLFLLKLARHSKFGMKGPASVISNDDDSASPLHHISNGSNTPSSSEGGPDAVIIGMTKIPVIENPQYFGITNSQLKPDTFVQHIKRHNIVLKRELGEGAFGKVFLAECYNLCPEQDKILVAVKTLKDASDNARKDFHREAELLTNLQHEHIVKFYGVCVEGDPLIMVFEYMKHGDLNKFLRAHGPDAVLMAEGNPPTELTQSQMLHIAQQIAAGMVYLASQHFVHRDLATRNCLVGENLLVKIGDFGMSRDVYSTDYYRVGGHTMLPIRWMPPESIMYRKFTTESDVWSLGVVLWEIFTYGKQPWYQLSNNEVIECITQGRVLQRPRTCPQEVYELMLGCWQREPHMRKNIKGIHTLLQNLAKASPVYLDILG
Tyrosine-protein kinase BTK, sequence (Q06187 whole entry, the tested form may be a part): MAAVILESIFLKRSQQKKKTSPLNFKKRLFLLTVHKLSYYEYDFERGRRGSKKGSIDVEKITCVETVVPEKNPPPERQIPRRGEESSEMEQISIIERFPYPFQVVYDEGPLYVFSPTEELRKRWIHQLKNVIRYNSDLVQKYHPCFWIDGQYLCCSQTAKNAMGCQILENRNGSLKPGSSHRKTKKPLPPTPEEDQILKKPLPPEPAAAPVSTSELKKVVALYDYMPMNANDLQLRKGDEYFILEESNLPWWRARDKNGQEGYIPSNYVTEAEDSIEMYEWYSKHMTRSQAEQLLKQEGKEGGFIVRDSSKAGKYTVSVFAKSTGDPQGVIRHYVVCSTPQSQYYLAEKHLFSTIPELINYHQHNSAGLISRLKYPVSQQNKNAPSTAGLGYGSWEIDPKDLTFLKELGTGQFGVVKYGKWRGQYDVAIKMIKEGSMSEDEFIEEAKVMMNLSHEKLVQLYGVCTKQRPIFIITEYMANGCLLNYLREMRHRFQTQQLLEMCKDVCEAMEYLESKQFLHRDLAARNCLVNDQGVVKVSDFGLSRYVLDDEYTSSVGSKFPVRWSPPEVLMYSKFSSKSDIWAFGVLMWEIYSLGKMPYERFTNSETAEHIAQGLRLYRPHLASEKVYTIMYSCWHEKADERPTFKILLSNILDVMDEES

Compound: Cc1nc(-c2ccccc2)c(NC(=O)Nc2cnc3ccccn23)s1
IC50 [1]: 48 nM

Compound: O=C(Nc1cnn2ccc(N3CCC[C@@H]3c3cc(F)ccc3F)nc12)N1CC[C@H](O)C1.O=S(=O)(O)O [LAROTRECTINIB SULFATE]
IC50 (KM12): 1.9 nM
half-life [3]: 2.9 h
CL/F [4]: 98 L/h
Tmax [5]: 1 h
IC50 [2]: 2 to 20 nM
AUC [6]: 4351 ng·h/mL
bioavailability [7]: 32 to 37%
Vd [8]: 48 L
Cmax [9]: 788 ng/mL

Compound: C[C@H](Oc1cc(-c2cnn(C3CCNCC3)c2)cnc1N)c1c(Cl)ccc(F)c1Cl
IC50 (IMR-32): 100 nM

Compound: COCCN1C[C@@H](NC(=O)Nc2cc3cc(OC)c(OC)cc3nc2-c2ccccc2)[C@H](c2ccccc2)C1
IC50 [11]: < 100 nM

Compound: C[C@H](Nc1ncc(Br)c(Nc2cc(C3CC3)[nH]n2)n1)c1ccc(F)cn1
IC50 [2]: 5 nM

Compound: CC(C)N1Cc2cc(cc(F)c2Cl)O[C@@H](C)CNC(=O)c2cnn3ccc1nc23
IC50 [13]: 1500 nM
IC50 [1]: 0.2 nM
IC50 [14]: 0.536 nM

Compound: Nc1cc(CNC(=O)c2cc(NC(=O)c3cc(-c4cccc(F)n4)c(F)cc3Cl)n(-c3ccccc3)n2)ccn1
IC50 [15]: 1.04 nM

Compound: COCCN1C[C@@H](NC(=O)Nc2cc3ccccc3nc2-c2ccccc2)[C@H](c2ccccc2)C1
IC50 [11]: < 100 nM

Compound: O=C(c1cnc2ccc(N3CCCC3c3cc(F)ccc3F)cn12)N1CC(O)C1 (stereo unspecified)
IC50 [17]: < 50 nM

Compound: O=C(Cn1c2c(c3cc(F)ccc31)CCn1nccc1-2)NCc1ccc(-c2c(F)cccc2F)cn1
IC50 [1]: 0.9 to 1 nM

Compound: CC(C)c1cc(C(=O)c2cccc(NC(=O)Nc3ccc4ccccc4c3)c2)c2c(N)ncnn12
IC50 (NTRK1/NTRK2): < 1 nM

Compound: Cn1ccc(-c2cc(C(=O)Nc3c(-c4ccccc4)nc4ccc(CO)cn34)ccc2C(F)(F)F)n1
IC50 [1]: 1 nM

Compound: COCCN1C[C@@H](NC(=O)Nc2cc3c(nc2-c2ccccc2)CCCC3)[C@H](c2ccccc2)C1
IC50 [11]: < 100 nM

Compound: C[C@H](Nc1ncc(Cl)c(Nc2cc(C3CC3)[nH]n2)n1)c1ccc(F)cn1
IC50 [2]: 8 nM

Now from value to compound:

IC50 [2]: 859 nM
Compound: N#Cc1cc([N+](=O)[O-])c(Nc2cc(C3CC3)[nH]n2)cc1N[C@@H](CO)c1ccc(F)cc1

IC50 [1]: 1.1 nM
IC50 [10]: 1.9 nM
Compound: COCCN1C[C@@H](NC(=O)Nc2c(C)c(-c3ccnc(C)n3)nn2-c2ccccc2)[C@H](c2cccc(F)c2)C1

IC50 [1]: 1.7 nM
IC50 [10]: 6.1 nM
Compound: COCCN1C[C@@H](NC(=O)Nc2c(C)c(-c3cnn(C)c3)nn2-c2ccccc2)[C@H](c2ccccc2)C1

IC50 [1]: 0.7 to 1 nM
Compound: CS(=N)(=O)c1ccc(-c2ccc(CNC(=O)Cn3c4c(c5cc(F)ccc53)CCn3nccc3-4)nc2)cc1 (stereo unspecified)

IC50 [2]: 611 nM
Compound: C[C@H](Nc1nc(Nc2cc(C3CC3)[nH]n2)c(F)cc1CNC(=O)C1CCC(=O)N1)c1ccc(F)cc1 (stereo partly specified)

IC50 [2]: 87 nM
Compound: COc1ccc2nc(N[C@@H](CO)c3ccc(F)cc3)nc(Nc3cc(C4CC4)[nH]n3)c2c1

IC50 [12]: 33 nM
Compound: Cc1cc(Nc2cnc(C#N)c(N[C@@H](C)c3ccc(F)cc3)n2)n[nH]1

IC50 [16]: < 10 nM
Compound: CC(C)c1nnc(-c2cnn3ccc(N4CCCC4c4cc(F)ccc4F)nc23)s1 (stereo unspecified)

IC50 [1]: 28 to 30 nM
Compound: O=C(Nc1c(-c2ccccc2)nc2ccccn12)NC1c2ccccc2-c2ccccc21

IC50 (NTRK1/NTRK2): < 1 nM
Compound: CN(C)CCCc1cc(C(=O)c2cccc(NC(=O)Nc3ccc(Cl)cc3Cl)c2)c2c(N)ncnn12

IC50 [2]: 1240 nM
Compound: C[C@H](Nc1cc(NCCO)c([N+](=O)[O-])c(Nc2cc(C3CC3)[nH]n2)c1)c1ccc(F)cc1

IC50 [17]: < 50 nM
Compound: O=C(Nc1ccc(F)cc1)c1cnc2ccc(N3CCCC3c3cc(F)ccc3F)cn12 (stereo unspecified)

IC50 [2]: 426 nM
Compound: C[C@H](Nc1cc(Nc2cc(C3CC3)[nH]n2)c([N+](=O)[O-])cc1F)c1ccc(F)cc1

IC50 [1]: 0.89 nM
Compound: CC(C)(O)c1ccc2nc(-c3ccccc3)c(NC(=O)c3cc(-c4ncccn4)c(C(F)(F)F)cc3F)n2c1

IC50 [2]: 59 nM
Compound: OCC[C@H](Nc1nc(Nc2cc(C3CC3)[nH]n2)c2sccc2n1)c1ccc(F)cc1
